Reference: US9867857B2, “Acetobacter and gluconacetobacter strains and their metabolites for use in inhibiting xanthine oxidase” (Food Industry Research And Development Institute, priority 2014, dated 2018)

Tested on: ICR mice
Experiment: Experimental uricemia: potassium oxonate-induced high serum uric acid
Assay type: in vivo
Settings: potassium oxonate 400 mg/kg + allopurinol 10 mg/kg fed, 1 h after dosing
Procedure: Acetobacter pasteurianus strain AHU01 was inoculated onto an M1A plate and cultured for 2 days at 30° C. The plate was washed with 7 ml of sterile water as seed broth. 0.5 ml of the seed broth was inoculated into 50 ml of a custom media (1% soy peptone, 0.2% yeast extract, 3% glucose, 0.2% malt extract, and 3% fructose) in a 250 ml triangular flask and incubated with shaking at 150 rpm for 7 days at 30° C. The medium was then collected and centrifuged at 3000 rpm for 15 minutes. Following centrifugation, the supernatant was collected, lyophilized, and freeze-dried to form a solid fermentation product for use in animal experiments.
ICR mice were used as experimental animals. Potassium oxonate, a uricase inhibitor, was used to induce a high level of uric acid in the serum of the mice. Mice were fasted for one hour and then fed saline or potassium oxonate (400 mg/kg) via a feeding tube. After one hour, potassium oxonate-treated mice were fed saline, allopurinol (10 mg/kg), or the Acetobacter pasteurianus strain AHU01 fermentation product (150 mg or 200 mg resuspended in saline per mouse) prepared as described above. Ten animals were used for each experimental group and for the control group. The animals were sacrificed after one hour and the level of uric acid in their serum was analyzed.

Which “serum uric acid concentration” value does the source give for `Oc1ncnc2[nH]ncc12` [allopurinol] here?
The value was 2.82 ± 0.28 mg/dL.
